Laboratory results reported in PMC11566621 (Stem Cell Research & Therapy, 2024).

Biological target: KLF4 (Kruppel-Like Factor 4) (Homo sapiens, UniProt O43474)
Assay: SPR
Format: binding

KLF4 (Kruppel-Like Factor 4), sequence (O43474 whole entry): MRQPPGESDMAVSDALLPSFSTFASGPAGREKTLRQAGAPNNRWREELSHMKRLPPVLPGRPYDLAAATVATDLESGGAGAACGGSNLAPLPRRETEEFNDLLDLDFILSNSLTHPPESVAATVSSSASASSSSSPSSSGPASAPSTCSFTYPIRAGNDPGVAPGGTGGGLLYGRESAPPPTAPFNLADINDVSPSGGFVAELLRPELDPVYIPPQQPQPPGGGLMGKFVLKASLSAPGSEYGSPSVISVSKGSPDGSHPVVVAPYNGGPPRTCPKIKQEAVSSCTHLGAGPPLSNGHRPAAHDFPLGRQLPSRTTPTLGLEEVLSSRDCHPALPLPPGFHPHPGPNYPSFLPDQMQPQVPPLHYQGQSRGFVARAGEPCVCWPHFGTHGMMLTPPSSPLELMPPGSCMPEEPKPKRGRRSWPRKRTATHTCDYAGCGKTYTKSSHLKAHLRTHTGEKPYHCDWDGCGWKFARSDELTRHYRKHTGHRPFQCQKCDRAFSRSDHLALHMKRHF

Kd: 48.9 µM
SMILES: C[C@@H]1O[C@@H](O[C@H]2C(=O)c3c(O)cc(O)cc3O[C@@H]2c2ccc(O)c(O)c2)[C@H](O)[C@H](O)[C@H]1O [Astilbin]
